Laboratory results: patent US10238667B2, “Vitamin D receptor/SMAD genomic circuit gates fibrotic response” (Salk Institute for Biological Studies, priority 2013, dated 2019)

Tested on: primary rat HSCs
Assay: Microarray expression profiling of TGFβ1 and TGFβ1+1,25(OH)2D3-treated HSCs
Format: cell-based
Settings: 24 h
Description: VDR Signaling Suppresses TGFβ-induced Pro-Fibrotic Genes. […] Euclidean clustering of both rows and columns using log2 transformed microarray expression data, n=2 per treatment group. […] Data represents the mean±SEM of at least three independent experiments performed in triplicate. Asterisks denote statistically significant differences (Student's unpaired t-test, *p<0.05, **p<0.01). HSCs were isolated from 10-week old male C57BL/6J mice and Wistar rats by in situ pronase, collagenase perfusion and single-step Histogenz gradient as previously reported (Hendriks et al., 1985; Knook et al., 1982). Isolated HSCs were cultured in DMEM (Mediatech) containing 20% FBS (Hyclone) on 6-well plates for 40 hours prior to end-point assays. Total RNA from primary rat or mouse HSCs was isolated using the RNeasy mini kit (Qiagen) according to standard protocols. RNA integrity and quality was assessed using the Agilent Bioanalyzer and prepared for hybridization to Illumina rat or mouse gene expression arrays according to standard Illumina protocols. Feature extraction was performed using the Illumina GenomeStudio software. Normalization and identification of differentially expressed genes from biological duplicates was performed using […] at http://sasquatch.ucsd.edu/vampire/.

[1] = TGFβ1 1 ng/ml ± 1,25(OH)2D3 100 nM

## C=C1/C(=C\C=C2/CCC[C@]3(C)C([C@H](C)CCCC(C)(C)O)CC[C@@H]23)C[C@@H](O)C[C@@H]1O (stereo partly drawn) [1,25(OH)2D3, 1α,25 dihydroxyvitamin D3]
TGFβ1 1 ng/ml + 1,25(OH)2D3 100 nM, Control 3963.4, TGFβ 9788.1
  LOC499078 VitD + TGFbeta AVG signal: 2325
TGFβ1 1 ng/ml + 1,25(OH)2D3 100 nM, Control 3986, TGFβ 9174
  Glipr1_predict VitD + TGFbeta AVG signal: 1894
TGFβ1 1 ng/ml + 1,25(OH)2D3 100 nM, Control 4057.3, TGFβ 7133.8
  Sh3kbp1 VitD + TGFbeta AVG signal: 1618
TGFβ1 1 ng/ml + 1,25(OH)2D3 100 nM, Control 4402.2, TGFβ 10637
  Ms4a7_predict VitD + TGFbeta AVG signal: 1708
TGFβ1 1 ng/ml + 1,25(OH)2D3 100 nM, Control 4496.5, TGFβ 12465
  LOC310190 VitD + TGFbeta AVG signal: 2594
TGFβ1 1 ng/ml + 1,25(OH)2D3 100 nM, Control 4506.5, TGFβ 5580.6
  Itgb2 VitD + TGF β Avg Signal: 4858.4
TGFβ1 1 ng/ml + 1,25(OH)2D3 100 nM, Control 4712.3, TGFβ 10527
  Nucb2 VitD + TGFbeta AVG signal: 2733
TGFβ1 1 ng/ml + 1,25(OH)2D3 100 nM, Control 4721.8, TGFβ 13843
  RT1-Ba VitD + TGFbeta AVG signal: 3390
TGFβ1 1 ng/ml + 1,25(OH)2D3 100 nM, Control 5658, TGFβ 19362
  LOC312102 VitD + TGFbeta AVG signal: 4469
TGFβ1 1 ng/ml + 1,25(OH)2D3 100 nM, Control 5856.6, TGFβ 12798
  Ptpro VitD + TGFbeta AVG signal: 2551
TGFβ1 1 ng/ml + 1,25(OH)2D3 100 nM, Control 6230.8, TGFβ 11228
  Dcir3 VitD + TGFbeta AVG signal: 1354
TGFβ1 1 ng/ml + 1,25(OH)2D3 100 nM, Control 6494.5, TGFβ 16466
  Oplah VitD + TGFbeta AVG signal: 1922
TGFβ1 1 ng/ml + 1,25(OH)2D3 100 nM, Control 8050.9, TGFβ 10104.2
  Itgb1 VitD + TGF β Avg Signal: 7987.9
TGFβ1 1 ng/ml + 1,25(OH)2D3 100 nM, Control 8370.4, TGFβ 15560.3
  Mmp14 VitD + TGF β Avg Signal: 14980.5
TGFβ1 1 ng/ml + 1,25(OH)2D3 100 nM, Control 10124.0, TGFβ 13471.4
  Timp1 VitD + TGF β Avg Signal: 9101.3
TGFβ1 1 ng/ml + 1,25(OH)2D3 100 nM, Control 10532.3, TGFβ 20216.0
  Ctgf VitD + TGF β Avg Signal: 9730.1
TGFβ1 1 ng/ml + 1,25(OH)2D3 100 nM, Control 10691.1, TGFβ 24123.0
  Col1a2 VitD + TGF β Avg Signal: 9593.3
TGFβ1 1 ng/ml + 1,25(OH)2D3 100 nM, Control 12345, TGFβ 21779
  Ms4a6b VitD + TGFbeta AVG signal: 5158
TGFβ1 1 ng/ml + 1,25(OH)2D3 100 nM, Control 16420, TGFβ 32328
  Ctsc VitD + TGFbeta AVG signal: 6319
[1]
  Bmp2 TGFb/TGFB + VitD3: 5.3 NM_017178.1 Rattus norvegicus bone
  Cacnb3 TGFb/TGFB + VitD3: 6.0 NM_012828.1 Rattus norvegicus calcium channel
  Ccl12_predicte TGFb/TGFB + VitD3: 5.5 XM_213425.2 PREDICTED: Rattus norvegicus
  Ccr5 TGFb/TGFB + VitD3: 12.9 NM_053960.2 Rattus norvegicus chemokine (C-
  Cdh1 TGFb/TGFB + VitD3: 4.4 NM_031334.1 Rattus norvegicus cadherin 1
  Chst1_predict TGFb/TGFB + VitD3: 12.7 XM_575178.1 PREDICTED: Rattus norvegicus
  Ctsc TGFb/TGFB + VitD3: 5.1 NM_017097.1 Rattus norvegicus cathepsin C
  Cysltr1 TGFb/TGFB + VitD3: 4.4 NM_053641.1 Rattus norvegicus cysteinyl
  Dcir2 TGFb/TGFB + VitD3: 4.6 XM_579146.1 PREDICTED: Rattus norvegicus
  Dcir3 TGFb/TGFB + VitD3: 8.3 XM_579150.1 PREDICTED: Rattus norvegicus
  Dsipi TGFb/TGFB + VitD3: 4.0 NM_031345.1 Rattus norvegicus delta sleep
  Emr1 TGFb/TGFB + VitD3: 5.9 XM_579174.1 PREDICTED: Rattus norvegicus
  Fchsd2_predic TGFb/TGFB + VitD3: 4.9 XM_218965.3 PREDICTED: Rattus norvegicus
  Gas7 TGFb/TGFB + VitD3: 4.9 NM_053484.1 Rattus norvegicus growth arrest
  Glipr1_predict TGFb/TGFB + VitD3: 4.8 XM_576223.1 PREDICTED: Rattus norvegicus GLI
  Hod TGFb/TGFB + VitD3: 5.1 NM_133621.2 Rattus norvegicus homeobox only
  LOC304349 TGFb/TGFB + VitD3: 7.1 XM_221990.3 PREDICTED: Rattus norvegicus
  LOC305269 TGFb/TGFB + VitD3: 4.0 XM_223309.3 PREDICTED: Rattus norvegicus
  LOC310190 TGFb/TGFB + VitD3: 4.8 XM_226886.3 PREDICTED: Rattus norvegicus
  LOC312102 TGFb/TGFB + VitD3: 4.3 XM_231461.3 PREDICTED: Rattus norvegicus
  LOC361699 TGFb/TGFB + VitD3: 3.8 XM_341982.2 PREDICTED: Rattus norvegicus
  LOC366205 TGFb/TGFB + VitD3: 6.6 XM_345441.2 PREDICTED: Rattus norvegicus
  LOC366608 TGFb/TGFB + VitD3: 4.4 XM_345665.2 PREDICTED: Rattus norvegicus
  LOC497796 TGFb/TGFB + VitD3: 5.1 XM_579296.1 PREDICTED: Rattus norvegicus
  LOC498741 TGFb/TGFB + VitD3: 6.1 XM_574019.1 PREDICTED: Rattus norvegicus
  LOC498751 TGFb/TGFB + VitD3: 5.1 XM_574030.1 PREDICTED: Rattus norvegicus
  LOC499078 TGFb/TGFB + VitD3: 4.2 XM_574362.1 PREDICTED: Rattus norvegicus
  LOC499100 TGFb/TGFB + VitD3: 3.9 XM_218456.3 PREDICTED: Rattus norvegicus
  LOC499272 TGFb/TGFB + VitD3: 4.4 XM_579937.1 PREDICTED: Rattus norvegicus
  LOC499356 TGFb/TGFB + VitD3: 11.0 XM_574669.1 PREDICTED: Rattus norvegicus
  LOC501570 TGFb/TGFB + VitD3: 4.6 XM_576974.1 PREDICTED: Rattus norvegicus
  LOC502904 TGFb/TGFB + VitD3: 6.7 XM_578406.1 PREDICTED: Rattus norvegicus
  LOC502907 TGFb/TGFB + VitD3: 9.6 XM_578409.1 PREDICTED: Rattus norvegicus
  Ly49si1 TGFb/TGFB + VitD3: 4.6 XM_579297.1 PREDICTED: Rattus norvegicus
  Ly49si2 TGFb/TGFB + VitD3: 4.6 XM_579298.1 PREDICTED: Rattus norvegicus
  Ms4a4a_predi TGFb/TGFB + VitD3: 17.7 XM_342027.1 PREDICTED: Rattus norvegicus
  Ms4a6a_predi TGFb/TGFB + VitD3: 4.5 XM_215145.3 PREDICTED: Rattus norvegicus
  Ms4a6b TGFb/TGFB + VitD3: 4.2 NM_00100697 Rattus norvegicus membrane-
  Ms4a7_predict TGFb/TGFB + VitD3: 6.2 XM_215200.2 PREDICTED: Rattus norvegicus
  Nucb2 TGFb/TGFB + VitD3: 3.9 NM_021663.2 Rattus norvegicus nucleobindin 2
  Oplah TGFb/TGFB + VitD3: 8.6 NM_053904.1 Rattus norvegicus 5-oxoprolinase
  Pcsk1 TGFb/TGFB + VitD3: 7.4 NM_017091.1 Rattus norvegicus proprotein
  Pirb TGFb/TGFB + VitD3: 5.3 NM_031713.1 Rattus norvegicus paired-Ig-like
  Ptprc TGFb/TGFB + VitD3: 4.2 NM_138507.1 Rattus norvegicus protein tyrosine
  Ptpro TGFb/TGFB + VitD3: 5.0 NM_017336.1 Rattus norvegicus protein tyrosine
  RT1-Ba TGFb/TGFB + VitD3: 4.1 XM_579226.1 PREDICTED: Rattus norvegicus
  Sh3kbp1 TGFb/TGFB + VitD3: 4.4 NM_053360.2 Rattus norvegicus SH3-domain
  Slamf9_predic TGFb/TGFB + VitD3: 4.2 XM_213932.2 PREDICTED: Rattus norvegicus
  Stab1_predict TGFb/TGFB + VitD3: 5.6 XM_214279.3 PREDICTED: Rattus norvegicus
  Tmem26_pred TGFb/TGFB + VitD3: 3.8 XM_228108.3 PREDICTED: Rattus norvegicus
